Data from PubChem BioAssay (NCI).
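Each compound was tested at five concentrations against cells in 96-well plates for 48 hours. GI50: concentration for 50% inhibition of growth. TGI: concentration producing complete growth inhibition.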

Tests used:
Assay in all cases: growth of human tumour cells (NCI), 48 h
CAKI-1 renal = system: CAKI-1 renal
NCI-H226 lung = system: NCI-H226 lung
M14 melanoma = system: M14 melanoma
SK-OV-3 ovarian = system: SK-OV-3 ovarian
NCI-H23 lung = system: NCI-H23 lung
HCT-15 colon = system: HCT-15 colon
DU-145 prostate = system: DU-145 prostate
HCC-2998 colon = system: HCC-2998 colon
U251 CNS = system: U251 CNS
SF-268 CNS = system: SF-268 CNS
NCI-H460 lung = system: NCI-H460 lung
UACC-62 melanoma = system: UACC-62 melanoma
NCI/ADR-RES ovarian = system: NCI/ADR-RES ovarian
HS 578T breast = system: HS 578T breast
MCF7 breast = system: MCF7 breast
HCT-116 colon = system: HCT-116 colon
CCRF-CEM leukemia = system: CCRF-CEM leukemia
KM12 colon = system: KM12 colon
IGROV1 ovarian = system: IGROV1 ovarian
SN12C renal = system: SN12C renal
TK-10 renal = system: TK-10 renal
A549 NSCLC = system: A549 NSCLC
SNB-75 CNS = system: SNB-75 CNS
SF-539 CNS = system: SF-539 CNS
SF-295 CNS = system: SF-295 CNS
OVCAR-8 ovarian = system: OVCAR-8 ovarian
HOP-62 NSCLC = system: HOP-62 NSCLC
EKVX NSCLC = system: EKVX NSCLC
MDA-MB-231 breast = system: MDA-MB-231 breast
SK-MEL-28 melanoma = system: SK-MEL-28 melanoma
BT-549 breast = system: BT-549 breast
K-562 leukemia = system: K-562 leukemia
SW-620 colon = system: SW-620 colon
MDA-MB-435 = system: MDA-MB-435
SNB-19 CNS = system: SNB-19 CNS
COLO 205 colon = system: COLO 205 colon
ACHN renal = system: ACHN renal
UO-31 renal = system: UO-31 renal
HOP-92 NSCLC = system: HOP-92 NSCLC
SR leukemia = system: SR leukemia
OVCAR-3 ovarian = system: OVCAR-3 ovarian
MOLT-4 leukemia = system: MOLT-4 leukemia
SK-MEL-2 melanoma = system: SK-MEL-2 melanoma
MALME-3M melanoma = system: MALME-3M melanoma
SK-MEL-5 melanoma = system: SK-MEL-5 melanoma
T-47D breast = system: T-47D breast
OVCAR-5 ovarian = system: OVCAR-5 ovarian
PC-3 prostate = system: PC-3 prostate
RPMI-8226 leukemia = system: RPMI-8226 leukemia
HT29 colon = system: HT29 colon
NCI-H522 lung = system: NCI-H522 lung
786-0 renal = system: 786-0 renal
RXF 393 renal = system: RXF 393 renal
A498 renal = system: A498 renal
UACC-257 melanoma = system: UACC-257 melanoma

C=C(CN1CCc2[nH]c3ccc(F)cc3c2C1)c1ccc(C(=O)Nc2ccccc2N)cc1 gave a GI50 (CAKI-1 renal) of 1.93 µM, a TGI (CAKI-1 renal) of 5.91 µM and a GI50 (NCI-H226 lung) of 2.47 µM. For the same compound, the TGI (NCI-H226 lung) was 7.32 µM, the GI50 (M14 melanoma) was 0.78 µM and the TGI (M14 melanoma) was 4.75 µM. It also gave a GI50 (SK-OV-3 ovarian) of 2.92 µM, a TGI (SK-OV-3 ovarian) of 11.8 µM and a GI50 (NCI-H23 lung) of 2.22 µM. It also gave a TGI (NCI-H23 lung) of 12.6 µM, a GI50 (HCT-15 colon) of 3.17 µM and a TGI (HCT-15 colon) of 12.6 µM. For the same compound, the GI50 (DU-145 prostate) was 1.66 µM, the TGI (DU-145 prostate) was 3.94 µM and the GI50 (HCC-2998 colon) was 1.38 µM. It also gave a TGI (HCC-2998 colon) of 3.82 µM, a GI50 (U251 CNS) of 2.91 µM and a TGI (U251 CNS) of 11.2 µM. It also gave a GI50 (SF-268 CNS) of 3.03 µM, a TGI (SF-268 CNS) of 8.36 µM and a GI50 (NCI-H460 lung) of 3.98 µM. For the same compound, the TGI (NCI-H460 lung) was 17.2 µM, the GI50 (UACC-62 melanoma) was 2.26 µM and the TGI (UACC-62 melanoma) was 5.9 µM. For the same compound, the GI50 (NCI/ADR-RES ovarian) was 0.621 µM, the TGI (NCI/ADR-RES ovarian) was 11.3 µM and the GI50 (HS 578T breast) was 1.07 µM. It also gave a TGI (HS 578T breast) of 14.1 µM, a GI50 (MCF7 breast) of 2.45 µM and a TGI (MCF7 breast) of 69.2 µM. It also gave a GI50 (HCT-116 colon) of 0.367 µM, a TGI (HCT-116 colon) of 5.04 µM and a GI50 (CCRF-CEM leukemia) of 2.52 µM. For the same compound, the TGI (CCRF-CEM leukemia) was 11.9 µM, the GI50 (KM12 colon) was 0.524 µM and the TGI (KM12 colon) was 2.94 µM. It also gave a GI50 (IGROV1 ovarian) of 0.41 µM, a TGI (IGROV1 ovarian) of 3.53 µM and a GI50 (SN12C renal) of 3.82 µM. It also gave a TGI (SN12C renal) of 14 µM, a GI50 (TK-10 renal) of 2.58 µM and a TGI (TK-10 renal) of 16.2 µM. It also gave a GI50 (A549 NSCLC) of 1.17 µM, a TGI (A549 NSCLC) of 9.17 µM and a GI50 (SNB-75 CNS) of 2.14 µM. For the same compound, the TGI (SNB-75 CNS) was 7.4 µM, the GI50 (SF-539 CNS) was 0.38 µM and the TGI (SF-539 CNS) was 2.32 µM. The GI50 (SF-295 CNS) was 3.31 µM, the TGI (SF-295 CNS) was 11.8 µM and the GI50 (OVCAR-8 ovarian) was 0.772 µM. It also gave a TGI (OVCAR-8 ovarian) of 3.82 µM, a GI50 (HOP-62 NSCLC) of 0.605 µM and a TGI (HOP-62 NSCLC) of 8.38 µM. It also gave a GI50 (EKVX NSCLC) of 5.06 µM, a TGI (EKVX NSCLC) of 19.7 µM and a GI50 (MDA-MB-231 breast) of 2.82 µM. The TGI (MDA-MB-231 breast) was 11.3 µM, the GI50 (SK-MEL-28 melanoma) was 3.54 µM and the TGI (SK-MEL-28 melanoma) was 26.2 µM. For the same compound, the GI50 (BT-549 breast) was 1.5 µM, the TGI (BT-549 breast) was 5.67 µM and the GI50 (K-562 leukemia) was 1.06 µM. The TGI (K-562 leukemia) was 14.6 µM, the GI50 (SW-620 colon) was 0.715 µM and the TGI (SW-620 colon) was 15.6 µM. The GI50 (MDA-MB-435) was 1.6 µM, the TGI (MDA-MB-435) was 4.07 µM and the GI50 (SNB-19 CNS) was 3.73 µM. The TGI (SNB-19 CNS) was 21.7 µM, the GI50 (COLO 205 colon) was 2.37 µM and the TGI (COLO 205 colon) was 6.66 µM. It also gave a GI50 (ACHN renal) of 3.33 µM, a TGI (ACHN renal) of 11.4 µM and a GI50 (UO-31 renal) of 0.997 µM. For the same compound, the TGI (UO-31 renal) was 4.14 µM, the GI50 (HOP-92 NSCLC) was 10.7 µM and the TGI (HOP-92 NSCLC) was 36.7 µM. The GI50 (SR leukemia) was 0.795 µM, the TGI (SR leukemia) was 20.1 µM and the GI50 (OVCAR-3 ovarian) was 2.08 µM. It also gave a TGI (OVCAR-3 ovarian) of 6.84 µM, a GI50 (MOLT-4 leukemia) of 1.92 µM and a TGI (MOLT-4 leukemia) of 6.56 µM. For the same compound, the GI50 (SK-MEL-2 melanoma) was 1.07 µM, the TGI (SK-MEL-2 melanoma) was 8.14 µM and the GI50 (MALME-3M melanoma) was 0.389 µM. For the same compound, the TGI (MALME-3M melanoma) was 3.1 µM, the GI50 (SK-MEL-5 melanoma) was 0.502 µM and the TGI (SK-MEL-5 melanoma) was 1.83 µM. For the same compound, the GI50 (T-47D breast) was 3.76 µM, the TGI (T-47D breast) was 87.8 µM and the GI50 (OVCAR-5 ovarian) was 4.32 µM. For the same compound, the TGI (OVCAR-5 ovarian) was 20.6 µM, the GI50 (PC-3 prostate) was 4.32 µM and the TGI (PC-3 prostate) was 52.3 µM. The GI50 (RPMI-8226 leukemia) was 2.48 µM, the TGI (RPMI-8226 leukemia) was greater than 100 µM and the GI50 (HT29 colon) was 1.8 µM. The TGI (HT29 colon) was 31.6 µM, the GI50 (NCI-H522 lung) was 0.316 µM and the TGI (NCI-H522 lung) was 1.35 µM. The GI50 (786-0 renal) was 0.56 µM, the TGI (786-0 renal) was 3.59 µM and the GI50 (RXF 393 renal) was 0.269 µM. The TGI (RXF 393 renal) was 0.949 µM, the GI50 (A498 renal) was 1.5 µM and the TGI (A498 renal) was 4.62 µM. For the same compound, the GI50 (UACC-257 melanoma) was 0.6 µM and the TGI (UACC-257 melanoma) was 2.71 µM.
